Data published in the NIST ThermoML archive (doi:10.1016/j.fluid.2015.07.032).
Several values for one entry are separate records, joined by “and”; a condition that tells them apart may be missing. Equal values may be shown once. ± gives the expanded uncertainty stated by the source.

Key:
[1] = for Normal melting temperature: Crystal, DTA; for mass density: 298.15 K, 101.33 kPa, Liquid, Vibrating tube method
[2] = Molar enthalpy of transition or fusion; conditions: Crystal; DSC

Row | Compound | Normal melting temperature [1] | Molar enthalpy of transition or fusion [2] | mass density [1]
1 | CC(=O)Oc1ccccc1C(=O)O [2-acetoxybenzoic acid] | 135.50 ± 0.7 °C | 8.01 ± 0.174 kcal/mol | –
2 | CC(=O)Nc1ccc(O)cc1 [N-acetyl-p-aminophenol] | 169.20 ± 0.7 °C | 6.57 ± 0.146 kcal/mol | –
3 | CCO [ethanol] | – | – | 785.02 ± 0.12 kg/m3
4 | NC(N)=Nc1nc(CSCC/C(N)=N/S(N)(=O)=O)cs1 [famotidine] | – | 11.5 kcal/mol and 12 kcal/mol | –
5 | N=C(N)N [guanidine] | 141.00 ± 0.7 °C | 8.48 ± 0.184 kcal/mol | –

Continued, values first:

Row | Normal melting temperature [1] | Molar enthalpy of transition or fusion [2] | mass density [1] | Compound
6 | – | – | 786.59 ± 0.12 kg/m3 | CO [methanol]
7 | – | – | 821.6 ± 0.11 kg/m3 | CCCCCCCCO [octan-1-ol]
8 | – | – | 780.8 ± 0.13 kg/m3 | CC(C)O [propan-2-ol]
